The text below walks through data of US4330542A, “N(Sulfonyl)anilines for treating angina pectoris” (Sanofi, priority 1979, dated 1982).

A short description of series [1]: Heart-rate in anaesthetized atropinized dogs after intravenous injection. Type of series: in vivo. Particulars: anaesthetized atropinized dog, 10 mg/kg intravenous. As to the method:
(§1) The pharmacological investigation was carried out on anaesthetized dogs (30 mg/kg I.V. of sodium pentobarbital) having previously received an intravenous dose of 1 mg/kg of atropine sulphate.
(§2) The substance to be tested was given by an intravenous injection lasting two minutes after which the behaviour of both heart-rate and blood-pressure was observed over a certain period of time. An investigation was then carried out to detect any antiadrenergic properties. The compound listed hereunder were tested, in most cases in the form of pharmaceutically acceptable acid addition salts: […]

The test system of series [2] is α-system. Description: Inhibitory effect on the α-system: reduction of epinephrine-increased blood-pressure in the atropinized dog. Type of series: in vivo. The conditions noted are these: anaesthetized atropinized dog, 10 mg/kg intravenous. As to the method: (§3) A dose of epinephrine, sufficient to produce a stable increase in blood-pressure was administered to a dog anaesthetized with sodium pentobarbital which had previously received an intravenous injection of 1 mg/kg of atropine sulphate. The operation was repeated several times and the blood-pressure obtained was noted. When the latter had returned to its normal level, the animal was given an intravenous dose of 10 mg/kg of the compound to be tested followed by the same dose as above of epinephrine.

A further series has as its system β-system. Briefly: Antiadrenergic effect on the β-system: reduction of isoprenaline-increased heart-rate in the dog. The series is classed as in vivo. The conditions noted are these: anaesthetized atropinized dog, same method as epinephrine test (10 mg/kg intravenous). As to the method: as §3
The antiadrenergic effects of the compounds of the invention on the β-system were also studied, by determining the degree to which they reduced isoprenaline-increased heart-rate. The same method as above was used.

Series [3] can be described thus: Blood-pressure in anaesthetized atropinized dogs after intravenous injection. The conditions noted are these: anaesthetized atropinized dog, 10 mg/kg intravenous. Type of series: in vivo. The protocol: as §1, §2
Series [4] has as its system α-system. Description: Inhibitory effect on the α-system: reduction of epinephrine-increased blood-pressure in the atropinized dog. Type of series: in vivo. Particulars: anaesthetized atropinized dog, dose as low as 2 mg/kg.
A short description of series [5]: Acute toxicity in the rat, intravenous route. The conditions noted are these: in vivo. The protocol:
Acute toxicity tests were also carried out on the rat, by intravenous route.

As for `C=CCOc1ccccc1N(CC(O)CNC(C)(C)C)S(=O)(=O)c1ccc(OC)cc1` (centres unmarked) [Compound 14, 2-Allyloxy-N-(3-tert-butylamino-2 hydroxy-propyl)-N-(4-methoxy-benzenesulphonyl)-aniline], the reduction in heart-rate result in series [1] is “marked and long-lasting reduction in heart-rate”. Further, in the series on α-system [2], the “reduction of epinephrine-induced arterial hypertension” value was “reduced, at least partially, the epinephrine-induced arterial hypertension”. In the series with β-system, the “reduction in isoprenaline-increased heart-rate” value is listed as “marked reduction in the isoprenaline-increased heart-rate”.

As for `C=CCOc1ccccc1N(CC(O)CN1CCN(c2ccc(F)cc2)CC1)S(C)(=O)=O` (centres unmarked) [Compound 23, 2-Allyloxy-N-[3-(4-(4-fluoro-phenyl)-1-piperazinyl)-2-hydroxy-propyl]-N-methylsulphonyl-aniline], the reduction in blood-pressure result in series [3] is “marked and constant reduction in blood-pressure”. In addition, the “reduction of epinephrine-induced arterial hypertension” value with α-system [2] is “reduced, at least partially, the epinephrine-induced arterial hypertension”.

For the molecule `C=CCOc1ccccc1N(CC(O)CN1CCN(c2ccccc2OC)CC1)S(C)(=O)=O` (centres unmarked) [Compound 30, 2-Allyloxy-N-[2-hydroxy-3-(4-(2-methoxy-phenyl)-1-piperazinyl)-propyl]-N-methylsulphonyl-aniline], the reduction in blood-pressure result in series [3] is “marked and constant reduction in blood-pressure”. In addition, in the series on α-system [2], the “reduction of epinephrine-induced arterial hypertension” value is recorded as “reduced, at least partially, the epinephrine-induced arterial hypertension”. Further, the “reduction in isoprenaline-increased heart-rate” value in the series on β-system was “marked reduction in the isoprenaline-increased heart-rate”. The “reduction of epinephrine-induced arterial hypertension at low dose” value in the series on α-system [4] was “Long-lasting and total reduction”.

With `C=CCOc1ccccc1N(CC(O)CN1CCN(Cc2ccccc2)CC1)S(=O)(=O)c1ccc(C)cc1` (centres unmarked) [Compound 40, 2-Allyloxy-N-[3-(4-benzyl-1-piperazinyl)-2-hydroxy-propyl]-N-(4-methylbenzene-sulphonyl)-aniline], the reduction in heart-rate entry in series [1] is “marked and long-lasting reduction in heart-rate”. Moreover, the reduction in blood-pressure result in series [3] was “marked and constant reduction in blood-pressure”. Moreover, in the series with α-system [2], the “reduction of epinephrine-induced arterial hypertension” value is reported as “reduced, at least partially, the epinephrine-induced arterial hypertension”. For the same molecule, the “reduction in isoprenaline-increased heart-rate” value in the series on β-system is reported as “marked reduction in the isoprenaline-increased heart-rate”. The molecule further gave an LD50 in series [5] of 12 mg/kg.

For the molecule `C=CCOc1ccccc1N(CC(O)CN1CCN(c2ccccn2)CC1)S(=O)(=O)c1ccc(OC)cc1` (centres unmarked) [Compound 53, 2-Allyloxy-N-[2-hydroxy-3-(4-(2-pyridyl)-1-piperazinyl)-propyl]-N-(4-methoxy-benzenesulphonyl)-aniline], in series [3], the reduction in blood-pressure entry was “marked and constant reduction in blood-pressure”. In addition, in the series with α-system [2], the “reduction of epinephrine-induced arterial hypertension” value was “reduced, at least partially, the epinephrine-induced arterial hypertension”.

In the case of `C=CCOc1ccccc1N(CC(O)CN1CCN(c2ccccc2F)CC1)S(=O)(=O)c1ccc(OC)cc1` (centres unmarked) [Compound 57, 2-Allyloxy-N-[2-hydroxy-3-(4-(2-fluoro-phenyl)-1-piperazinyl)-propyl]-N-(4-methoxy-benzenesulphonyl)-aniline], the reduction in heart-rate result in series [1] was “marked and long-lasting reduction in heart-rate”. Moreover, the “reduction of epinephrine-induced arterial hypertension” value in the series on α-system [2] is “reduced, at least partially, the epinephrine-induced arterial hypertension”.

As to `CS(=O)(=O)N(CC(O)CN1CCN(c2ccccc2Cl)CC1)c1ccc(Cl)c(Cl)c1` (centres unmarked) [Compound 75, 3,4-Dichloro-N-[3-(4-(2-chloro-phenyl)-1-piperazinyl)-2-hydroxy-propyl]-N-methylsulphonyl-aniline], in series [3], the reduction in blood-pressure entry was “marked and constant reduction in blood-pressure”. For the same molecule, the “reduction of epinephrine-induced arterial hypertension” value in the series with α-system [2] is reported as “reduced, at least partially, the epinephrine-induced arterial hypertension”.

For the molecule `COc1ccccc1N1CCN(CC(O)CN(c2ccc(Cl)c(Cl)c2)S(C)(=O)=O)CC1` (centres unmarked) [Compound 77, 3,4-Dichloro-N-[2-hydroxy-3-(4-(2-methoxy-phenyl)-1-piperazinyl)-propyl]-N-methylsulphonyl-aniline], the reduction in heart-rate entry in series [1] was “marked and long-lasting reduction in heart-rate”. In addition, in series [3], the reduction in blood-pressure result was “marked and constant reduction in blood-pressure”. Also, the “reduction of epinephrine-induced arterial hypertension” value with α-system [2] is “reduced, at least partially, the epinephrine-induced arterial hypertension”.

Turning to `COc1ccc(S(=O)(=O)N(CC(O)CN2CCN(c3ccc(Cl)cc3)CC2)c2ccc(Cl)c(Cl)c2)cc1` (centres unmarked) [Compound 84, 3,4-Dichloro-N-[3-(4-(4-chloro-phenyl)-1-piperazinyl)-2-hydroxy-propyl]-N-(4-methoxy-benzenesulphonyl)-aniline], in series [1], the reduction in heart-rate result was “marked and long-lasting reduction in heart-rate”. Besides, in the series on α-system [2], the “reduction of epinephrine-induced arterial hypertension” value is “reduced, at least partially, the epinephrine-induced arterial hypertension”.

For the molecule `CC(=O)Nc1ccc(N(CC(O)CN2CCN(c3ccccc3)CC2)S(C)(=O)=O)cc1` (centres unmarked) [Compound 88, 4-Acetylamino-N-[2-hydroxy-3-(4-phenyl-1-piperazinyl)-propyl]-N-methylsulphonyl-aniline], the reduction in blood-pressure entry in series [3] is “marked and constant reduction in blood-pressure”. Further, the “reduction of epinephrine-induced arterial hypertension” value in the series on α-system [2] is reported as “reduced, at least partially, the epinephrine-induced arterial hypertension”. Besides, in the series with β-system, the “reduction in isoprenaline-increased heart-rate” value is “marked reduction in the isoprenaline-increased heart-rate”.

For the molecule `COc1ccccc1N1CCN(CC(O)CN(c2ccc(NC(C)=O)cc2)S(C)(=O)=O)CC1` (centres unmarked) [Compound 90, 4-Acetylamino-N-[2-hydroxy-3-(4-(2-methoxy-phenyl)1-piperazinyl)-2-hydroxy-propyl]-N-methyl-sulphonyl-aniline], the reduction in blood-pressure entry in series [3] was “marked and constant reduction in blood-pressure”. In addition, in the series with α-system [2], the “reduction of epinephrine-induced arterial hypertension” value is given as “reduced, at least partially, the epinephrine-induced arterial hypertension”.

In the case of `CC(=O)Nc1ccc(N(CC(O)CN2CCN(c3ccccc3)CC2)S(=O)(=O)c2ccc(C)cc2)cc1` (centres unmarked) [Compound 91, 4-Acetylamino-N-[2-hydroxy-3-(4-phenyl-1-piperazinyl)-propyl]-N-(4-methyl-benzenesulphonyl)-aniline], the reduction in heart-rate result in series [1] was “marked and long-lasting reduction in heart-rate”. For the same molecule, the reduction in blood-pressure result in series [3] was “marked and constant reduction in blood-pressure”. In addition, the “reduction of epinephrine-induced arterial hypertension” value in the series with α-system [2] is “reduced, at least partially, the epinephrine-induced arterial hypertension”.

Consider `COc1ccccc1N1CCN(CC(O)CN(c2ccc(NC(C)=O)cc2)S(=O)(=O)c2ccc(C)cc2)CC1` (centres unmarked) [Compound 94, 4-Acetylamino-N-[2-hydroxy-3-(4-(2-methoxy-phenyl)-1-piperazinyl)-propyl]-N-(4-methyl-benzenesulphonyl)-aniline], for which, in series [1], the reduction in heart-rate result was “marked and long-lasting reduction in heart-rate”. Further, the reduction in blood-pressure result in series [3] was “marked and constant reduction in blood-pressure”. Further, the “reduction of epinephrine-induced arterial hypertension” value with α-system [2] is on record as “reduced, at least partially, the epinephrine-induced arterial hypertension”.

`CC(=O)Nc1ccc(N(CC(O)CN2CCN(c3ccccc3Cl)CC2)S(=O)(=O)c2ccc(C)cc2)cc1` (centres unmarked) [Compound 95, 4-Acetylamino-N-[3-(4-(2-chloro-phenyl)-1-piperazinyl)-2-hydroxy-propyl]-N-(4-methyl-benzenesulphonyl)-aniline]: the reduction in blood-pressure entry in series [3] was “marked and constant reduction in blood-pressure”.

Consider `COc1ccccc1N1CCN(CC(O)CN(c2ccc(CC(N)=O)cc2)S(=O)(=O)c2ccc(C)cc2)CC1` (centres unmarked) [Compound 105, N-[2-hydroxy-3-(4-(2-methoxy-phenyl)-1-piperazino)-propyl]-N-(4-methyl-benzenesulphonyl)-4-amino-phenylacetamide], for which the reduction in blood-pressure result in series [3] was “marked and constant reduction in blood-pressure”. In the series on α-system [2], the “reduction of epinephrine-induced arterial hypertension” value is “reduced, at least partially, the epinephrine-induced arterial hypertension”.

With “N-[2-hydroxy-3-(4-(2-methoxy-phenyl)-1-piperazinyl)-propyl]-N-methylsulphonyl-4-amino-phenylacetamide [Compound 102]”, the reduction in heart-rate result in series [1] was “marked and long-lasting reduction in heart-rate”. Further, the reduction in blood-pressure entry in series [3] was “marked and constant reduction in blood-pressure”. In addition, the “reduction of epinephrine-induced arterial hypertension” value in the series with α-system [2] is given as “reduced, at least partially, the epinephrine-induced arterial hypertension”. For the same molecule, the “reduction of epinephrine-induced arterial hypertension at low dose” value with α-system [4] was “Long-lasting and total reduction”.

With “N-[3-(4-(4-chlorophenyl)-1-piperazinyl)-2-hydroxy-propyl]-N-methylsulphonyl-4-amino-phenylacetamide [Compound 99]”, the “reduction of epinephrine-induced arterial hypertension” value in the series on α-system [2] is “reduced, at least partially, the epinephrine-induced arterial hypertension”.
